Laboratory results: US5981558A, “DC107 derivatives” (Kyowa Hakko Kogyo Co., Ltd., priority 1996, dated 1999)
Values after ≈ are worked out from the molar mass of the structure shown. Where two headings read alike, the source gives them in different places.

Legend:
HeLa S3 cells = test: HeLa S3 Cell Growth Inhibition Test; type: cell-based; details: Homo sapiens, 72 hours incubation, Neutral Red
In short: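 HeLa S3 cells seeded overnight in MEM with 10% FBS, then exposed to compound for 72 h at 37 °C. Viable cells stained with Neutral Red, dye extracted, absorbance read at 550 nm; IC50 derived against untreated cells.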

[1] = tested on: Sarcoma 180 mouse solid tumor; test: Antitumor activity against Sarcoma 180 mouse solid tumor; type: in vivo, mouse (ddY); details: Sarcoma-180, iv, 168 h; for response vs control in vivo at 16 mg/kg: 16 mg/kg i.v. once
Description: To a ddY mouse were intraperitoneally transplanted 5×10^6 sarcoma 180 cells. On the seventh day from the transplant, the cells were collected from the ascites, washed once with sterilized physiological saline, and then diluted with sterilized physiological saline to prepare a cell suspension having a concentration of 5×10^7 cells/mL. This suspension was transplanted in an amount of 0.01 mL to a subcutaneous part of the right axilla of each of male ddY mice each weighing 20±1 g.
A test compound was dissolved in physiological saline containing polyoxyethylene sorbitan monolaurate. At 24 hours after the tumor transplant, 0.2 mL of the solution was intravenously administered to the tail of each of a group of five mice.

[2] = tested on: EH: Enterococcus hirae ATCC 10541; test: Antimicrobial activity by the agar dilution method (MIC); type: cell-based; details: pH 7
Description: (§1) Antimicrobial activity was determined by the agar dilution method using a culture medium (pH 7) prepared by dissolving 3 g of Bacto-Tryptone (manufactured by Difco, Co.), 3 g of meat extract, 1 g of yeast extract, 1 g of glucose, and 16 g of agar in 1 l of water.

[3] = tested on: SA: Staphylococcus aureus ATCC 6538P; test: as above; type: cell-based; details: Staphylococcus aureus, ATCC6538P, pH 7, read-out: minimum inhibitory concentration (MIC), SA
Description: as §1

[4] = tested on: BS: Bacillus substilis No. 10707; test: as above; type: cell-based; details: Bacillus, pH 7, read-out: minimum inhibitory concentration (MIC), BS
Description: as §1

[5] = tested on: KP: Klebisiella pneumoniae ATCC 10031; test: as above; type: cell-based; details: pH 7, read-out: minimum inhibitory concentration (MIC), KP
Description: as §1

[6] = read-out: T/C (tumor volume ratio treated/control)
[7] = HeLa S3, 72 h, HeLa S3, read-out: IC50, HeLa S3 cell growth inhibition
[8] = 24 hours after transplant, tumor volume on day 7, read-out: T/C (tumor volume ratio treated/control)
[9] = 8.0 mg/kg i.v. once, 24 hours after transplant, tumor volume on day 7, read-out: T/C (tumor volume ratio treated/control)

C/C1=C\C(OC2CCCCO2)C(=O)/C=C/C=C\c2csc(n2)C(C)N2C(=O)CC(C(C)(O)C(=O)SCc3oc(=O)oc3COC(=O)c3cnc4ccccc4n3)(CC1)[S+]2[O-] (stereo not shown) [Compound 94]
IC50 (HeLa S3 cells; HeLa S3, 72 h, read-out: IC50, HeLa S3 cell growth inhibition, HeLa S3): 33 nM
response vs control in vivo at 8 mg/kg [1, 6]: 43%

CC(=O)NCC(=O)OCc1oc(=O)oc1CSC(=O)C(C)(O)C12CC/C(C)=C/C(OC3CCCCO3)C(=O)/C=C/C=C\c3csc(n3)C(C)N(C(=O)C1)[S+]2[O-] (stereo not shown) [Compound 98]
IC50 (HeLa S3 cells; [7]): 70 nM
response vs control in vivo at 16 mg/kg [1, 8]: 40%

COCCOCC(=O)OCc1oc(=O)oc1CSC(=O)C(C)(O)C12CC/C(C)=C/C(O)C(=O)/C=C/C=C\c3csc(n3)C(C)N(C(=O)C1)[S+]2[O-] (stereo not shown) [Compound 99]
IC50 (HeLa S3 cells; [7]): 87 nM
response vs control in vivo at 8 mg/kg [1, 9]: 40%

COCCOCCOCC(=O)OCc1oc(=O)oc1CSC(=O)C(C)(O)C12CC/C(C)=C/C(O)C(=O)/C=C/C=C\c3csc(n3)C(C)N(C(=O)C1)[S+]2[O-] (stereo not shown) [Compound 101]
IC50 (HeLa S3 cells; [7]): 100 nM
response vs control in vivo at 16 mg/kg [1, 8]: 27%

COCCOCCOCC(=O)OCc1oc(=O)oc1CSC(=O)C(C)(O)C12CC/C(C)=C/C(OC3CCCCO3)C(=O)/C=C/C=C\c3csc(n3)C(C)N(C(=O)C1)[S+]2[O-] (stereo not shown) [Compound 102]
IC50 (HeLa S3 cells; [7]): 38 nM
response vs control in vivo at 16 mg/kg [1, 8]: 46%

C=C(CSC(=O)C(C)(O)C12CC/C(C)=C/C(OC3CCCCO3)C(=O)/C=C/C=C\c3csc(n3)C(C)N(C(=O)C1)[S+]2[O-])C(=O)OC (stereo not shown) [Compound 112]
IC50 (HeLa S3 cells; [7]): 64 nM
response vs control in vivo at 8 mg/kg [1, 9]: 24%

COC1(OC2/C=C(\C)CCC3(C(C)(O)C(=O)SCC4=C(C)OC(C)(C)OC4=O)CC(=O)N(C(C)c4nc(cs4)/C=C\C=C\C2=O)[S+]3[O-])CCOCC1 (stereo not shown) [Compound 122]
IC50 (HeLa S3 cells; [7]): 1800 nM
response vs control in vivo at 16 mg/kg [1, 8]: 37%

CC1=C(CSC(=O)C(C)(O)C23CC/C(C)=C/C(OC4CCCCO4)C(=O)/C=C/C=C\c4csc(n4)C(C)N(C(=O)C2)[S+]3[O-])C(=O)OC(C)(C)O1 (stereo not shown) [Compound 123]
IC50 (HeLa S3 cells; [7]): 600 nM
response vs control in vivo at 16 mg/kg [1, 8]: 14%

CC1=C(CSC(=O)C(C)(O)C23CC/C(C)=C/C(OC4CCCCO4)C(=O)/C=C/C=C\c4csc(n4)C(C)N(C(=O)C2)[S+]3[O-])C(=O)OC2(CCOCC2)O1 (stereo not shown) [Compound 125]
IC50 (HeLa S3 cells; [7]): 47 nM
response vs control in vivo at 16 mg/kg [1, 8]: 43%

CCOC(=O)N1CCC2(CC1)OC(=O)C(CSC(=O)C(C)(O)C13CC/C(C)=C/C(OC4CCCCO4)C(=O)/C=C/C=C\c4csc(n4)C(C)N(C(=O)C1)[S+]3[O-])=C(C)O2 (stereo not shown) [Compound 127]
IC50 (HeLa S3 cells; HeLa S3, read-out: IC50, HeLa S3 cell growth inhibition): 33 nM
response vs control in vivo at 16 mg/kg [1, 8]: 29%

C/C1=C\C(O)C(=O)/C=C/C=C\c2csc(n2)C(C)N2C(=O)CC(C(C)(O)C(=O)SCOC(=O)CCCNC(=O)C(C)(CO)CO)(CC1)[S+]2[O-] (stereo not shown) [Compound 139]
minimum inhibitory concentration (MIC), EH [2]: 12 µg/mL (≈ 16.2 µM)
MIC [3]: 25 µg/mL (≈ 33.7 µM)
MIC [4]: 12 µg/mL (≈ 16.2 µM)
MIC [5]: 25 µg/mL (≈ 33.7 µM)
response vs control in vivo at 4 mg/kg [1, 6]: 33%

C/C1=C\C(O)C(=O)/C=C/C=C\c2csc(n2)C(C)N2C(=O)CC(C(C)(O)C(=O)SCOC(=O)CCCNC(=O)[C@@H]3CCC(=O)N3)(CC1)[S+]2[O-] (stereo partly shown) [Compound 144]
minimum inhibitory concentration (MIC), EH [2]: 5.8 µg/mL (≈ 7.87 µM)
MIC [3]: 12 µg/mL (≈ 16.3 µM)
MIC [4]: 12 µg/mL (≈ 16.3 µM)
MIC [5]: 12 µg/mL (≈ 16.3 µM)
response vs control in vivo at 8 mg/kg [1, 6]: 26%

C/C1=C\C(O)C(=O)/C=C/C=C\c2csc(n2)C(C)N2C(=O)CC(C(C)(O)C(=O)SCOC(=O)CCCN3CCCC3=O)(CC1)[S+]2[O-] (stereo not shown) [Compound 145]
minimum inhibitory concentration (MIC), EH [2]: 7.7 µg/mL (≈ 11.1 µM)
MIC [3]: 15 µg/mL (≈ 21.6 µM)
MIC [4]: 7.7 µg/mL (≈ 11.1 µM)
MIC [5]: 7.7 µg/mL (≈ 11.1 µM)
response vs control in vivo at 4 mg/kg [1, 6]: 23%

C/C1=C\C(O)C(=O)/C=C/C=C\c2csc(n2)C(C)N2C(=O)CC(C(C)(O)C(=O)SCc3oc(=O)oc3COC(=O)CN(C)C)(CC1)[S+]2[O-] (stereo not shown) [Compound 158]
minimum inhibitory concentration (MIC), EH [2]: 0.33 µg/mL (≈ 0.456 µM)
MIC [3]: 0.33 µg/mL (≈ 0.456 µM)
MIC [4]: < 0.041 µg/mL
MIC [5]: 1.3 µg/mL (≈ 1.8 µM)
response vs control in vivo at 32 mg/kg [1, 6]: 31%
